Test results as given in the supplement of paper PMC11451515.

Experiments:
Details in all cases: 48 h
SEM cells [1] = assay: cell viability relative to DMSO control; higher = less cytotoxic
Method in brief: (§1)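 Three leukemia lines were tested: NOMO1 and SEM at 500 cells/well and P12-Ichikawa at 1000 cells/well. Each was adapted for at least four passages in each medium and seeded in 5 μl in 1536-well plates, and library compounds in DMSO were pin-dosed from 47 μM to 0.79 nM in 11 threefold steps. After 48 h at 37°C, CellTiter-Glo One luminescence was read. Viability is a percentage relative to DMSO wells on each plate, with cell-free wells as background.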

P12-Ichikawa [2] = assay: as above
Method in brief: as §1

NOMO1 [3] = assay: as above
Method in brief: as §1

SEM cells [4] = assay: AUC of viability dose-response curve (% viability x log10 dose units); higher = less sensitive
Method in brief: (§2)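 Over 48 h at 37°C, leukemia cells in 1536-well plates (500 or 1000 cells/well), adapted to each medium, received library compounds in DMSO at 11 threefold doses from 47 μM to 0.79 nM. CellTiter-Glo One luminescence, normalised per plate to DMSO and cell-free wells, was fitted by a four-parameter log-logistic function of log10 dose. The area under the curve was then integrated by trapezoidal rule, after scaling curves above full viability and removing those that failed quality control.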

P12-Ichikawa [5] = assay: as above
Method in brief: as §2

NOMO1 [6] = assay: as above
Method in brief: as §2

Cc1cccc(N(C)C(=S)Oc2ccc3ccccc3c2)c1
cell viability [%]
Details	NOMO1 [3]	P12-Ichikawa [2]	SEM cells [1]
HPLM + 10% dialyzed FBS, 0.000781 µM	110	98.1	79.4
HPLM + 10% dialyzed FBS, 0.00234 µM	120	114	91.8
HPLM + 10% dialyzed FBS, 0.00702 µM	116	109	83.8
HPLM + 10% dialyzed FBS, 0.0211 µM	124	109	98.8
HPLM + 10% dialyzed FBS, 0.0632 µM	117	118	90.7
HPLM + 10% dialyzed FBS, 0.19 µM	112	94.2	104
HPLM + 10% dialyzed FBS, 0.569 µM	123	107	96.8
HPLM + 10% dialyzed FBS, 1.71 µM	121	109	84.7
HPLM + 10% dialyzed FBS, 5.12 µM	100	111	106
HPLM + 10% dialyzed FBS, 15.4 µM	92	111	96.5
HPLM + 10% dialyzed FBS, 46.1 µM	110	109	87.2
RPMI 5 mM glucose + 10% FBS, 0.000781 µM	99.9	109	79.7
RPMI 5 mM glucose + 10% FBS, 0.00234 µM	94.2	107	102
RPMI 5 mM glucose + 10% FBS, 0.00702 µM	106	111	96.1
RPMI 5 mM glucose + 10% FBS, 0.0211 µM	107	112	90.8
RPMI 5 mM glucose + 10% FBS, 0.0632 µM	108	113	108
RPMI 5 mM glucose + 10% FBS, 0.19 µM	98.8	116	86.7
RPMI 5 mM glucose + 10% FBS, 0.569 µM	97.2	116	110
RPMI 5 mM glucose + 10% FBS, 1.71 µM	97.3	112	109
RPMI 5 mM glucose + 10% FBS, 5.12 µM	94.5	107	107
RPMI 5 mM glucose + 10% FBS, 15.4 µM	103	99.6	99.4
RPMI 5 mM glucose + 10% FBS, 46.1 µM	99.6	92.4	85
RPMI 5 mM glucose + 10% dialyzed FBS, 0.000781 µM	98.1	95.1	95.6
RPMI 5 mM glucose + 10% dialyzed FBS, 0.00234 µM	105	101	114
RPMI 5 mM glucose + 10% dialyzed FBS, 0.00702 µM	99.8	104	102
RPMI 5 mM glucose + 10% dialyzed FBS, 0.0211 µM	112	108	108
RPMI 5 mM glucose + 10% dialyzed FBS, 0.0632 µM	99.8	104	108
RPMI 5 mM glucose + 10% dialyzed FBS, 0.19 µM	95.2	109	96.7
RPMI 5 mM glucose + 10% dialyzed FBS, 0.569 µM	107	106	129
RPMI 5 mM glucose + 10% dialyzed FBS, 1.71 µM	110	109	117
RPMI 5 mM glucose + 10% dialyzed FBS, 5.12 µM	104	103	115
RPMI 5 mM glucose + 10% dialyzed FBS, 15.4 µM	101	104	101
RPMI 5 mM glucose + 10% dialyzed FBS, 46.1 µM	106	80.4	89

AUC of viability dose-response curve
Details	NOMO1 [6]	P12-Ichikawa [5]	SEM cells [4]
HPLM + 10% dialyzed FBS	460	469	445
RPMI 5 mM glucose + 10% FBS	470	466	470
RPMI 5 mM glucose + 10% dialyzed FBS	469	471	476

CN(CCOc1ccc(NS(C)(=O)=O)cc1)CCc1ccc(NS(C)(=O)=O)cc1
cell viability [%]
Details	NOMO1 [3]	P12-Ichikawa [2]	SEM cells [1]
HPLM + 10% dialyzed FBS, 0.000781 µM	108	108	102
HPLM + 10% dialyzed FBS, 0.00234 µM	126	114	108
HPLM + 10% dialyzed FBS, 0.00702 µM	110	119	105
HPLM + 10% dialyzed FBS, 0.0211 µM	116	115	107
HPLM + 10% dialyzed FBS, 0.0632 µM	136	126	104
HPLM + 10% dialyzed FBS, 0.19 µM	138	127	120
HPLM + 10% dialyzed FBS, 0.569 µM	147	127	111
HPLM + 10% dialyzed FBS, 1.71 µM	133	111	117
HPLM + 10% dialyzed FBS, 5.12 µM	131	118	128
HPLM + 10% dialyzed FBS, 15.4 µM	135	123	93.9
HPLM + 10% dialyzed FBS, 46.1 µM	134	121	131
RPMI 5 mM glucose + 10% FBS, 0.000781 µM	121	118	89.9
RPMI 5 mM glucose + 10% FBS, 0.00234 µM	119	127	111
RPMI 5 mM glucose + 10% FBS, 0.00702 µM	109	116	101
RPMI 5 mM glucose + 10% FBS, 0.0211 µM	129	126	110
RPMI 5 mM glucose + 10% FBS, 0.0632 µM	117	121	122
RPMI 5 mM glucose + 10% FBS, 0.19 µM	120	129	101
RPMI 5 mM glucose + 10% FBS, 0.569 µM	135	131	119
RPMI 5 mM glucose + 10% FBS, 1.71 µM	120	126	107
RPMI 5 mM glucose + 10% FBS, 5.12 µM	141	125	109
RPMI 5 mM glucose + 10% FBS, 15.4 µM	118	136	79.7
RPMI 5 mM glucose + 10% FBS, 46.1 µM	136	126	94.6
RPMI 5 mM glucose + 10% dialyzed FBS, 0.000781 µM	–	113	85.2
RPMI 5 mM glucose + 10% dialyzed FBS, 0.00234 µM	–	114	95.2
RPMI 5 mM glucose + 10% dialyzed FBS, 0.00702 µM	–	114	102
RPMI 5 mM glucose + 10% dialyzed FBS, 0.0211 µM	–	114	100
RPMI 5 mM glucose + 10% dialyzed FBS, 0.0632 µM	–	117	94
RPMI 5 mM glucose + 10% dialyzed FBS, 0.19 µM	–	129	100
RPMI 5 mM glucose + 10% dialyzed FBS, 0.569 µM	–	123	96.9
RPMI 5 mM glucose + 10% dialyzed FBS, 1.71 µM	–	122	104
RPMI 5 mM glucose + 10% dialyzed FBS, 5.12 µM	–	120	96.1
RPMI 5 mM glucose + 10% dialyzed FBS, 15.4 µM	–	120	56.1
RPMI 5 mM glucose + 10% dialyzed FBS, 46.1 µM	–	115	91.6

AUC of viability dose-response curve
Details	NOMO1 [6]	P12-Ichikawa [5]	SEM cells [4]
HPLM + 10% dialyzed FBS	451	469	444
RPMI 5 mM glucose + 10% FBS	455	465	463
RPMI 5 mM glucose + 10% dialyzed FBS	463	464	447

O=C(NCCO[N+](=O)[O-])c1cccnc1
cell viability [%]
Details	NOMO1 [3]	P12-Ichikawa [2]	SEM cells [1]
HPLM + 10% dialyzed FBS, 0.000781 µM	112	112	99.3
HPLM + 10% dialyzed FBS, 0.00234 µM	124	113	64.4
HPLM + 10% dialyzed FBS, 0.00702 µM	123	118	107
HPLM + 10% dialyzed FBS, 0.0211 µM	133	122	114
HPLM + 10% dialyzed FBS, 0.0632 µM	137	115	105
HPLM + 10% dialyzed FBS, 0.19 µM	126	117	97.1
HPLM + 10% dialyzed FBS, 0.569 µM	136	115	101
HPLM + 10% dialyzed FBS, 1.71 µM	135	116	98.7
HPLM + 10% dialyzed FBS, 5.12 µM	129	113	108
HPLM + 10% dialyzed FBS, 15.4 µM	123	121	105
HPLM + 10% dialyzed FBS, 46.1 µM	62.3	118	115
RPMI 5 mM glucose + 10% FBS, 0.000781 µM	–	112	100
RPMI 5 mM glucose + 10% FBS, 0.00234 µM	–	126	92.8
RPMI 5 mM glucose + 10% FBS, 0.00702 µM	–	120	112
RPMI 5 mM glucose + 10% FBS, 0.0211 µM	–	130	111
RPMI 5 mM glucose + 10% FBS, 0.0632 µM	–	121	112
RPMI 5 mM glucose + 10% FBS, 0.19 µM	–	119	114
RPMI 5 mM glucose + 10% FBS, 0.569 µM	–	126	96.1
RPMI 5 mM glucose + 10% FBS, 1.71 µM	–	126	102
RPMI 5 mM glucose + 10% FBS, 5.12 µM	–	127	112
RPMI 5 mM glucose + 10% FBS, 15.4 µM	–	126	121
RPMI 5 mM glucose + 10% FBS, 46.1 µM	–	118	108
RPMI 5 mM glucose + 10% dialyzed FBS, 0.000781 µM	118	112	107
RPMI 5 mM glucose + 10% dialyzed FBS, 0.00234 µM	120	116	89.6
RPMI 5 mM glucose + 10% dialyzed FBS, 0.00702 µM	123	109	112
RPMI 5 mM glucose + 10% dialyzed FBS, 0.0211 µM	135	114	109
RPMI 5 mM glucose + 10% dialyzed FBS, 0.0632 µM	127	111	97.6
RPMI 5 mM glucose + 10% dialyzed FBS, 0.19 µM	119	123	111
RPMI 5 mM glucose + 10% dialyzed FBS, 0.569 µM	133	111	96.6
RPMI 5 mM glucose + 10% dialyzed FBS, 1.71 µM	124	112	105
RPMI 5 mM glucose + 10% dialyzed FBS, 5.12 µM	125	112	110
RPMI 5 mM glucose + 10% dialyzed FBS, 15.4 µM	125	111	111
RPMI 5 mM glucose + 10% dialyzed FBS, 46.1 µM	92.1	117	110

AUC of viability dose-response curve
Details	NOMO1 [6]	P12-Ichikawa [5]	SEM cells [4]
HPLM + 10% dialyzed FBS	463	471	461
RPMI 5 mM glucose + 10% FBS	472	474	455
RPMI 5 mM glucose + 10% dialyzed FBS	471	475	461
